Laboratory results from ChEMBL document CHEMBL4270481, “ALK5 kinase inhibitory activity and synthesis of 2,3,4-substituted 5,5-dimethyl-5,6-dihydro-4H-pyrrolo[1,2-b]pyrazoles” (Eur J Med Chem, 2017).
Activity calls are given as the source filed them. The rule behind the calls is not given here.

How the values were obtained:
[1] = molecular target: Calcium/calmodulin-dependent protein kinase type 1 (Homo sapiens) (UniProt Q14012); test: Inhibition of CAMK1 (unknown origin) assessed as residual enzyme activity at 1 uM relative to untreated control
[2] = molecular target: Mitogen-activated protein kinase 14 (Homo sapiens) (UniProt Q16539); test: Inhibition of p38alpha (unknown origin) assessed as residual enzyme activity at 1 uM relative to untreated control
[3] = molecular target: RAC-alpha serine/threonine-protein kinase (Homo sapiens) (UniProt P31749); test: Inhibition of PKBalpha (unknown origin) assessed as residual enzyme activity at 1 uM relative to untreated control
[4] = molecular target: Protein kinase C alpha type (Homo sapiens) (UniProt P17252); test: Inhibition of PKCalpha (unknown origin) assessed as residual enzyme activity at 1 uM relative to untreated control
[5] = molecular target: Rho-associated protein kinase 2 (Homo sapiens) (UniProt O75116); test: Inhibition of ROCK2 (unknown origin) assessed as residual enzyme activity at 1 uM relative to untreated control
[6] = molecular target: Dual specificity tyrosine-phosphorylation-regulated kinase 1A (Homo sapiens) (UniProt Q13627); test: Inhibition of DYRK1A (unknown origin) assessed as residual enzyme activity at 1 uM relative to untreated control
[7] = molecular target: AMP-activated protein kinase, AMPK (Homo sapiens) (UniProt P54646+O43741+P54619+Q9UGJ0+Q9Y478+Q13131+Q9UGI9); test: Inhibition of AMPK (unknown origin) assessed as residual enzyme activity at 1 uM relative to untreated control; assay type: protein-complex assay
[8] = molecular target: Serine/threonine-protein kinase STK11 (Homo sapiens) (UniProt Q15831); test: Inhibition of LKB1 (unknown origin) assessed as residual enzyme activity at 1 uM relative to untreated control
[9] = molecular target: 3-phosphoinositide-dependent protein kinase 1 (Homo sapiens) (UniProt O15530); test: Inhibition of PDK1 (unknown origin) assessed as residual enzyme activity at 1 uM relative to untreated control
[10] = molecular target: Ribosomal protein S6 kinase alpha-1 (Homo sapiens) (UniProt Q15418); test: Inhibition of RSK1 (unknown origin) assessed as residual enzyme activity at 1 uM relative to untreated control
[11] = molecular target: Serine/threonine-protein kinase 3 (Homo sapiens) (UniProt Q13188); test: Inhibition of MST2 (unknown origin) assessed as residual enzyme activity at 1 uM relative to untreated control
[12] = molecular target: Serine/threonine-protein kinase D1 (Homo sapiens) (UniProt Q15139); test: Inhibition of PKD1 (unknown origin) assessed as residual enzyme activity at 1 uM relative to untreated control
[13] = molecular target: MAP/microtubule affinity-regulating kinase 3 (Homo sapiens) (UniProt P27448); test: Inhibition of MARK3 (unknown origin) assessed as residual enzyme activity at 1 uM relative to untreated control
[14] = molecular target: Eukaryotic elongation factor 2 kinase (Homo sapiens) (UniProt O00418); test: Inhibition of EF2K (unknown origin) assessed as residual enzyme activity at 1 uM relative to untreated control
[15] = molecular target: Tyrosine-protein kinase SYK (Homo sapiens) (UniProt P43405); test: Inhibition of SYK (unknown origin) assessed as residual enzyme activity at 1 uM relative to untreated control
[16] = molecular target: Dual specificity protein kinase TTK (Homo sapiens) (UniProt P33981); test: Inhibition of TTK (unknown origin) assessed as residual enzyme activity at 1 uM relative to untreated control
[17] = molecular target: Vascular endothelial growth factor receptor (Homo sapiens) (UniProt P17948+P35916+P35968); test: Inhibition of VEGFR (unknown origin) assessed as residual enzyme activity at 1 uM relative to untreated control; assay type: protein assay
[18] = molecular target: Glycogen synthase kinase-3 beta (Homo sapiens) (UniProt P49841); test: Inhibition of GSK3beta (unknown origin) assessed as residual enzyme activity at 1 uM relative to untreated control
[19] = molecular target: Serine/threonine-protein kinase PAK 4 (Homo sapiens) (UniProt O96013); test: Inhibition of PAK4 (unknown origin) assessed as residual enzyme activity at 1 uM relative to untreated control
[20] = molecular target: T1, TGF-beta receptor type-1 (Homo sapiens, UniProt P36897); test: Inhibition of human ALK5 expressed in Sf9 insect cells using casein as substrate in presence of [gamma-33P]ATP; assay type: cell-based
T1 sequence (P36897 whole entry): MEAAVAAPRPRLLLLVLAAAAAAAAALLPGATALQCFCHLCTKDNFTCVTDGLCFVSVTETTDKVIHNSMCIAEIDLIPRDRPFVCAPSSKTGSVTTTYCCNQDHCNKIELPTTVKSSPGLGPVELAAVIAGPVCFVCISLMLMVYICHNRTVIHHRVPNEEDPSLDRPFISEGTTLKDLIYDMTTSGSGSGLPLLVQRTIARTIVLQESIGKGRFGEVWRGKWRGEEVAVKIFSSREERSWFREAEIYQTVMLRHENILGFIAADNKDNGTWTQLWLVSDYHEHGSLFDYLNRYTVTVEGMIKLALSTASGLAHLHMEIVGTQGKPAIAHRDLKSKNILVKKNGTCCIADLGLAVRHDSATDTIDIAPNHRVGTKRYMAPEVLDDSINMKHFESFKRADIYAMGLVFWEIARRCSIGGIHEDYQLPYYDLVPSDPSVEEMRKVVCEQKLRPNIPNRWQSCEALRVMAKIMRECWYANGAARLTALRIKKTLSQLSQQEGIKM

[21] = molecular target: Interleukin-1 receptor-associated kinase 4 (Homo sapiens) (UniProt Q9NWZ3); test: Inhibition of IRAK4 (unknown origin) assessed as residual enzyme activity at 1 uM relative to untreated control
[22] = tested on: MCF7; test: Cytotoxicity against human MCF7 cells assessed as decrease in cell proliferation after 72 hrs by calcein AM staining-based assay; assay type: functional; conditions: MCF7, 72 h
[23] = molecular target: Mitogen-activated protein kinase kinase kinase 11 (Homo sapiens) (UniProt Q16584); test: Inhibition of MLK3 (unknown origin) assessed as residual enzyme activity at 1 uM relative to untreated control
[24] = molecular target: T2, TGF-beta receptor type-1 (Homo sapiens) (UniProt P36897); conditions: HeLa, at 1 µM
T2 sequence (whole entry): T1 sequence (P36897 whole entry)
Description: Inhibition of ALK5 in serum starved human HeLa cells assessed as reduction in TGF-beta-induced SMAD2/3 nuclear transaction at 1 uM pre-incubated for 30 mins before TGF-beta stimulation for 30 mins by immunofluorescence analysis

[25] = molecular target: Ribosomal protein S6 kinase alpha-5 (Homo sapiens) (UniProt O75582); test: Inhibition of MSK1 (unknown origin) assessed as residual enzyme activity at 1 uM relative to untreated control
[26] = molecular target: Tyrosine-protein kinase Lck (Homo sapiens) (UniProt P06239); test: Inhibition of LCK (unknown origin) assessed as residual enzyme activity at 1 uM relative to untreated control
[27] = molecular target: Aurora kinase B (Homo sapiens) (UniProt Q96GD4); test: Inhibition of Aurora B (unknown origin) assessed as residual enzyme activity at 1 uM relative to untreated control
[28] = organism: Homo sapiens; test: Inhibition of PKA (unknown origin) assessed as residual enzyme activity at 1 uM relative to untreated control
[29] = molecular target: Receptor-interacting serine/threonine-protein kinase 2 (Homo sapiens) (UniProt O43353); test: Inhibition of RIPK2 (unknown origin) assessed as residual enzyme activity at 1 uM relative to untreated control

Chain of Vascular endothelial growth factor receptor (Homo sapiens) (P17948 whole entry, looked up): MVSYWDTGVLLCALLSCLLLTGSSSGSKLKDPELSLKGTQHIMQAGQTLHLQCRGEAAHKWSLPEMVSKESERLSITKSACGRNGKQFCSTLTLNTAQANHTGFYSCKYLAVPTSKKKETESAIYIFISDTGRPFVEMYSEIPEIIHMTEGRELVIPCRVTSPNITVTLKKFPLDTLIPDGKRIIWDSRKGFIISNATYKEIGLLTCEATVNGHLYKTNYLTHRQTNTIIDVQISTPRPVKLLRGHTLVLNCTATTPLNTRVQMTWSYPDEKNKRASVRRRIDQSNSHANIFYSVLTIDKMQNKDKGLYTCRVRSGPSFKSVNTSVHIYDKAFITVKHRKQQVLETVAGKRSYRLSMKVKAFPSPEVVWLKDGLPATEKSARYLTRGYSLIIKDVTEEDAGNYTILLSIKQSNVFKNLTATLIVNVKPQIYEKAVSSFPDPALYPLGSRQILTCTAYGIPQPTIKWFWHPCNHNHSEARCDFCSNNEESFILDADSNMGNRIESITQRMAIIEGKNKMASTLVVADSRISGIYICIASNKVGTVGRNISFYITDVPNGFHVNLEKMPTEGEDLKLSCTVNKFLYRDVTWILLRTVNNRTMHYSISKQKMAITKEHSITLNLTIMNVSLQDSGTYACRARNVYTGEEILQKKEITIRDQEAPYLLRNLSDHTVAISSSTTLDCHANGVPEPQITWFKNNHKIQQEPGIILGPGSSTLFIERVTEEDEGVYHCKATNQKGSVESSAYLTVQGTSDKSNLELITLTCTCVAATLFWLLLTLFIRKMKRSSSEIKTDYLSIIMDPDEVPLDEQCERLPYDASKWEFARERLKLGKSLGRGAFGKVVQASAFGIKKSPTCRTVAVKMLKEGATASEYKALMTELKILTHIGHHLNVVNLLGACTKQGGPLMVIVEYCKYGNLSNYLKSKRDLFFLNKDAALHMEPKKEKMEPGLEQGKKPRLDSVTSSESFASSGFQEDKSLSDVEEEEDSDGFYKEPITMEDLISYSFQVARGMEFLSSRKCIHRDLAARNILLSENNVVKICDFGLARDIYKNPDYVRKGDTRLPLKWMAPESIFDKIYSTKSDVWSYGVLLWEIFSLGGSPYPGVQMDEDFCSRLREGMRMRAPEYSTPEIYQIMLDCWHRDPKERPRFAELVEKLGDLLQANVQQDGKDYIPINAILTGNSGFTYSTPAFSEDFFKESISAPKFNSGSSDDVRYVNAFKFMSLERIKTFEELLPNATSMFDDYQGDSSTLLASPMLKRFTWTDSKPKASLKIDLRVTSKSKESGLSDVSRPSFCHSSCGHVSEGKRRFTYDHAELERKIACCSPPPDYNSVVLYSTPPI
Chain of Vascular endothelial growth factor receptor (Homo sapiens) (P35916 whole entry, looked up): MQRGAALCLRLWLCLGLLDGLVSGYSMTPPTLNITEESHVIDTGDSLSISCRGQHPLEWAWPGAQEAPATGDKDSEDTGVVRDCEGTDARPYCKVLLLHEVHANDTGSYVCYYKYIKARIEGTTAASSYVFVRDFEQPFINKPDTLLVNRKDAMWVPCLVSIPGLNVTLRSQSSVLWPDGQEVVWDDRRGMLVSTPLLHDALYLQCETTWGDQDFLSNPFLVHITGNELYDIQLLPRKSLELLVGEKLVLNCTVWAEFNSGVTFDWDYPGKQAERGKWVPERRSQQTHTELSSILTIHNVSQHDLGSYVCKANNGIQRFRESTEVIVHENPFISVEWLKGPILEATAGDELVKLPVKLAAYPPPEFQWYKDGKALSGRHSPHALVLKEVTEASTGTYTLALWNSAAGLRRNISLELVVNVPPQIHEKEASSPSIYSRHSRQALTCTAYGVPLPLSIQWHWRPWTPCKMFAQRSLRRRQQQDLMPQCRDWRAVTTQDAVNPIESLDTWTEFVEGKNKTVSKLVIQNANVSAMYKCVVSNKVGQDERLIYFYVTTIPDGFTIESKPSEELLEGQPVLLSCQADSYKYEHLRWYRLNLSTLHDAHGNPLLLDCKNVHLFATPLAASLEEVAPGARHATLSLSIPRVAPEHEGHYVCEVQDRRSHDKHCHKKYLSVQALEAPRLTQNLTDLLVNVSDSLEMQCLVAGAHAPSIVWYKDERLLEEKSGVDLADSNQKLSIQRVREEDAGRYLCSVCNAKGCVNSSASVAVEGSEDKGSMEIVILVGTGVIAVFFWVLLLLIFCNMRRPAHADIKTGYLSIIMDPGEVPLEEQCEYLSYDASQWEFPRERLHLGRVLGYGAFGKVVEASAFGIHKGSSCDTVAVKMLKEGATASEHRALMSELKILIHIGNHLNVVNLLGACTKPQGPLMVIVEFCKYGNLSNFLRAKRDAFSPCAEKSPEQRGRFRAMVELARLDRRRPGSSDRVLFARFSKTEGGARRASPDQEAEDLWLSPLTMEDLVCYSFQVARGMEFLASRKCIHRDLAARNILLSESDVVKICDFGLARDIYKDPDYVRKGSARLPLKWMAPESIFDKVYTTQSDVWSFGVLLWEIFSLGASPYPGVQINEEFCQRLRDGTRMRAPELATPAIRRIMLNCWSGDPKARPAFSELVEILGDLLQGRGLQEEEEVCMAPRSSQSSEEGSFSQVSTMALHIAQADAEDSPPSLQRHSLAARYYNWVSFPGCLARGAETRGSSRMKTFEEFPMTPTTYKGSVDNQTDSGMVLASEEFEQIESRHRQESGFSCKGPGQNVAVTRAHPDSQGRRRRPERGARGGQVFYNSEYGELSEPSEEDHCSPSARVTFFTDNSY
Chain of Vascular endothelial growth factor receptor (Homo sapiens) (P35968 whole entry, looked up): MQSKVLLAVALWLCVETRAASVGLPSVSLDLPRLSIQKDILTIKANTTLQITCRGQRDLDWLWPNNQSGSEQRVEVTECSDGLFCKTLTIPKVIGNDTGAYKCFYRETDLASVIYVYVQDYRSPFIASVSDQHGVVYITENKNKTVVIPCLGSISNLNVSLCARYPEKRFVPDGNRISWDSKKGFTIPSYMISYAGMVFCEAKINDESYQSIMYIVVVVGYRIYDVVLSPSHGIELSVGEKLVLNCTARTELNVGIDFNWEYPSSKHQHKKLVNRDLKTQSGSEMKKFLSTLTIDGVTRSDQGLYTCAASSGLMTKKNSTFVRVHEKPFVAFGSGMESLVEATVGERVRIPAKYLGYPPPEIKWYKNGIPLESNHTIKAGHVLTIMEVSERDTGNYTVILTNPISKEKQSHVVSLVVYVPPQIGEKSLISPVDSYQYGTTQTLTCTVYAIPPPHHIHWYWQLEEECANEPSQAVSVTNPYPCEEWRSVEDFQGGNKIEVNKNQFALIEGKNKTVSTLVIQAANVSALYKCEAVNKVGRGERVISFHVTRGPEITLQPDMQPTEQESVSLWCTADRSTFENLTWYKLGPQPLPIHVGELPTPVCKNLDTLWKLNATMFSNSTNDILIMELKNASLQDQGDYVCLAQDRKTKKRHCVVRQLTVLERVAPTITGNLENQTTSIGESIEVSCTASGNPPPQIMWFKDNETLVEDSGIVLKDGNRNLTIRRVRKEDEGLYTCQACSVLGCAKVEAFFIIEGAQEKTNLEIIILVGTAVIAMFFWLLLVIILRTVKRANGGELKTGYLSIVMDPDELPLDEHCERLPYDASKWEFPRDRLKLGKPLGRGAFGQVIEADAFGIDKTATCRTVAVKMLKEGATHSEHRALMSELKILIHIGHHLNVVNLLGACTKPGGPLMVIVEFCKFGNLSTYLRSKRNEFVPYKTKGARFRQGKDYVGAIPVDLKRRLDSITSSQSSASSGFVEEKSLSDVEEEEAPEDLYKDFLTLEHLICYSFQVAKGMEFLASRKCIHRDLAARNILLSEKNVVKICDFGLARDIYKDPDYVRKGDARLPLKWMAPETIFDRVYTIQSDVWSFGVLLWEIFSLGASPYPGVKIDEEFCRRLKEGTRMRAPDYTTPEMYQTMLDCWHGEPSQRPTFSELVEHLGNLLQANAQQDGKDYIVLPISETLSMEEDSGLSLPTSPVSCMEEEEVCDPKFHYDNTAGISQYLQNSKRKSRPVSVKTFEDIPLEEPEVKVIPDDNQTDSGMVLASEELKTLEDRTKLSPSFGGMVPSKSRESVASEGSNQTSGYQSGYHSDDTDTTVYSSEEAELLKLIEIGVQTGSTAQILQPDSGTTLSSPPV
Chain of Glycogen synthase kinase-3 beta (Homo sapiens) (P49841 whole entry, looked up): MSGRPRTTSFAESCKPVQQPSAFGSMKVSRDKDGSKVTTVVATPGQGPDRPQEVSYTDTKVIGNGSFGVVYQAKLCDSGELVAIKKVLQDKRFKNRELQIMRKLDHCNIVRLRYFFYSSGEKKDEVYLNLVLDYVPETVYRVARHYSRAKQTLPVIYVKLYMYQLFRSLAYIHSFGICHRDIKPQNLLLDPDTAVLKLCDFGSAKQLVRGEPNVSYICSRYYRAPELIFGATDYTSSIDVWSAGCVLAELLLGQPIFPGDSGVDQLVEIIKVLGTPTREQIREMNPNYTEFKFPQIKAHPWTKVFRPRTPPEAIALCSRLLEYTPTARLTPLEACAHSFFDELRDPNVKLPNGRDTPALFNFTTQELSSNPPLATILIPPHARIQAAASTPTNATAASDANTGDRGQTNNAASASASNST
Chain of Calcium/calmodulin-dependent protein kinase type 1 (Homo sapiens) (Q14012 whole entry, looked up): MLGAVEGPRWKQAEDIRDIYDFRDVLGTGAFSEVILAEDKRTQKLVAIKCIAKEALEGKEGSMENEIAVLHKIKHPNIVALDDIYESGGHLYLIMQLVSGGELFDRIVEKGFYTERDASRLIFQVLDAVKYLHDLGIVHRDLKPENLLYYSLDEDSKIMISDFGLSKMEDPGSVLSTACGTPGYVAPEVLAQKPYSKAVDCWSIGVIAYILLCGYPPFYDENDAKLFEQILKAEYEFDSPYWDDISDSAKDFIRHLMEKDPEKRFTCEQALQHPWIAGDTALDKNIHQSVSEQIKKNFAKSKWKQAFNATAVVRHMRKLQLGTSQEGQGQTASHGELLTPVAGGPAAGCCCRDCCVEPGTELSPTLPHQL

- Activity [1]: > 80%
- Activity [2]: 9%
- Activity [3]: > 80%
- Activity [4]: > 80%
- Activity [5]: > 80%
- Activity [6]: > 80%
- Activity [7]: > 80%
- Activity [8]: > 80%
- Activity [9]: > 80%
- Activity [10]: 60 to 80%
- Activity [11]: > 80%
- Activity [12]: 12%
- Activity [13]: > 80%
- Activity [14]: > 80%
- Activity [15]: > 80%
- Activity [16]: > 80%
- Activity [17]: 60 to 80%
- Activity [18]: 60 to 80%
- Activity [19]: > 80%
- IC50 [20]: 80 nM
- Activity [21]: > 80%
- Activity [23]: 34%
- inhibition [24]: Active
- Activity [25]: > 80%
- Activity [26]: > 80%
- Activity [27]: > 80%
- Activity [28]: 60 to 80%
- Activity [29]: 11%
SMILES: Cc1cccc(-c2nn3c(c2-c2ccc(O)cc2)C(C)C(C)(C)C3)n1 (centres undefined)
- IC50 [22]: > 100000 nM
